Measured values: patent US12338237B2, “Derivatives having 1,2,3,4-tetrahydronaphthalene moiety or pharmaceutically acceptable salt thereof and pharmaceutical compositions comprising the same” (YUHAN CORPORATION, priority 2019, dated 2025)
Read-outs that look alike come from different tables or passages of the source.

What was measured:
GM1 production = experiment: cells; assay type: cell-based
[1] = biological target: glucosylceramide synthase (GCS) (Homo sapiens (Human), UniProt Q16739); experiment: Evaluation of inhibitory activities against GCS (enzyme reaction with A549 cell lysate, NBD C6-ceramide, HPLC fluorescence); assay type: biochemical; settings: GCS activity in A549 cell lysate, 37° C. for 90 minutes
Procedure, shortened: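 Lysate of A549 cells in 50 mM HEPES pH 7.3 incubated with test compound and NBD C6-ceramide at 37 °C for 90 min; lipids extracted with chloroform/methanol and GlcCer and ceramide peaks quantified by HPLC fluorescence. Activity from GlcCer area fraction, normalised between DMSO and ibiglustat controls.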

glucosylceramide synthase (GCS), sequence (Q16739 whole entry, looked up): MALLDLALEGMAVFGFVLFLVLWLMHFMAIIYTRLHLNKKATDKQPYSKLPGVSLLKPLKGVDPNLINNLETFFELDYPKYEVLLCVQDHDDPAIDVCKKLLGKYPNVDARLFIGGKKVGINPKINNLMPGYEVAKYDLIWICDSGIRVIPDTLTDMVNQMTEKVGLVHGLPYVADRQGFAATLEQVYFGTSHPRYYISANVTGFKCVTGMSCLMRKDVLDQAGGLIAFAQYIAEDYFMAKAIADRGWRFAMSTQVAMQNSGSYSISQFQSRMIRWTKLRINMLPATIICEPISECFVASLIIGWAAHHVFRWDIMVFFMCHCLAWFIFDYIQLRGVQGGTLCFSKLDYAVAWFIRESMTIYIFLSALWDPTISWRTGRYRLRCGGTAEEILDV

## CC(C)Cc1ccc(-c2ccc3c(c2)CCC2(CC2)C3NC(=O)O[C@@H]2CN3CCC2CC3)cc1 (stereo partly drawn) [Example 224, (S)-quinuclidin-3-yl (6′-(4-isobutylphenyl)-3′,4′-dihydro-1′H-spiro[cyclopropane-1,2′-naphthalen]-1′-yl)carbamate]
GM1 production; Homo sapiens, Jurkat, 72 h
  IC50: 6.7 nM
[1]
  IC50: 1.53 nM

## CC(C)(C)c1ccc(-c2ccc3c(c2)CCC2(CC2)C3NC(=O)O[C@@H]2CN3CCC2CC3)cc1 (stereo partly drawn) [Example 225, (S)-quinuclidin-3-yl (6′-(4-(tert-butyl)phenyl)-3′,4′-dihydro-1′H-spiro[cyclopropane-1,2′-naphthalen]-1′-yl)carbamate]
GM1 production; Homo sapiens, Jurkat, 72 h
  IC50: 22.4 nM
[1]
  IC50: 6.55 nM

## O=C(NC1c2ccc(-c3ccc(C4CC4)cc3)cc2CCC12CC2)O[C@@H]1CN2CCC1CC2 (stereo partly drawn) [Example 226, (S)-quinuclidin-3-yl (6′-(4-cyclopropylphenyl)-3′,4′-dihydro-1′H-spiro[cyclopropane-1,2′-naphthalen]-1′-yl)carbamate]
GM1 production; Homo sapiens, Jurkat, 72 h
  IC50: 10.8 nM
[1]
  IC50: 0.93 nM

## COc1ccc(-c2cc3c(cc2F)C(NC(=O)O[C@@H]2CN4CCC2CC4)C(C)(C)CC3)cc1F (stereo partly drawn) [Example 227, (S)-quinuclidin-3-yl (7-fluoro-6-(3-fluoro-4-methoxyphenyll)-2,2-dimethyl-1,2,3,4-tetrahydronaphthalen-1-yl)carbamate]
GM1 production; read-out: IC50
  IC50: 12.8 nM
[1]
  IC50: 0.5 nM

## CCCOc1c(C)cc(-c2cc3c(cc2F)C(NC(=O)O[C@@H]2CN4CCC2CC4)C(C)(C)CC3)cc1C (stereo partly shown) [Example 228]
GM1 production; read-out: IC50
  IC50: 12.5 nM
[1]
  IC50: 1.34 nM

## CCCc1ccc(-c2cc3c(cc2F)C(NC(=O)O[C@@H]2CN4CCC2CC4)C(C)(C)CC3)cc1 (stereo partly drawn) [Example 229, (S)-quinuclidin-3-yl (7-fluoro-2,2-dimethyl-6-(4-propylphenyl)-1,2,3,4-tetrahydronaphthalen-1-yl)carbamate]
GM1 production; Homo sapiens, Jurkat, 72 h
  IC50: 1.7 nM
[1]
  IC50: 0.31 nM

## CC(C)Cc1ccc(-c2cc3c(cc2F)C(NC(=O)O[C@@H]2CN4CCC2CC4)C(C)(C)CC3)cc1 (stereo partly drawn) [Example 230, (S)-quinuclidin-3-yl (7-fluoro-6-(4-isobutylphenyl)-2,2-dimethyl-1,2,3,4-tetrahydronaphthalen-1-yl)carbamate]
GM1 production; Homo sapiens, Jurkat, 72 h
  IC50: 1.8 nM
[1]
  IC50: 0.3 nM

## CC(C)(C)Oc1cc(-c2cc3c(cc2F)C(NC(=O)O[C@@H]2CN4CCC2CC4)C(C)(C)CC3)ccn1 (stereo partly shown) [Example 231]
GM1 production; read-out: IC50
  IC50: 3.8 nM
[1]
  IC50: 0.86 nM

## CC(C)Oc1ccc(-c2cc3c(cc2F)C(NC(=O)O[C@@H]2CN4CCC2CC4)C(C)(C)CC3)cc1 (stereo partly drawn) [Example 232, (S)-quinuclidin-3-yl (7-fluoro-6-(4-isopropoxyphenyl)-2,2-dimethyl-1,2,3,4-tetrahydronaphthalen-1-yl)carbamate]
GM1 production; Homo sapiens, Jurkat, 72 h
  IC50: 2.7 nM
[1]
  IC50: 0.29 nM

## COc1ccc(-c2cc3c(cc2OC)C(NC(=O)O[C@@H]2CN4CCC2CC4)C(C)(C)CC3)cc1F (stereo partly drawn) [Example 233, (S)-quinuclidin-3-yl (6-(3-fluoro-4-methoxyphenyl)-7-methoxy-2,2-dimethyl-1,2,3,4-tetrahydronaphthalen-1-yl)carbamate]
GM1 production; Homo sapiens, Jurkat, 72 h
  IC50: 21.7 nM
[1]
  IC50: 0.65 nM

## CCCOc1c(C)cc(-c2cc3c(cc2OC)C(NC(=O)O[C@@H]2CN4CCC2CC4)C(C)(C)CC3)cc1C (stereo partly drawn) [Example 234, (S)-quinuclidin-3-yl (6-(3,5-dimethyl-4-propoxyphenyl)-7-methoxy-2,2-dimethyl-1,2,3,4-tetrahydronaphthalen-1-yl)carbamate]
GM1 production; Homo sapiens, Jurkat, 72 h
  IC50: 14.9 nM
[1]
  IC50: 1.45 nM

## CCCc1ccc(-c2cc3c(cc2OC)C(NC(=O)O[C@@H]2CN4CCC2CC4)C(C)(C)CC3)cc1 (stereo partly drawn) [Example 235, (S)-quinuclidin-3-yl (7-methoxy-2,2-dimethyl-6-(4-propylphenyl)-1,2,3,4-tetrahydronaphthalen-1-yl)carbamate]
GM1 production; Homo sapiens, Jurkat, 72 h
  IC50: 3.2 nM
[1]
  IC50: 0.19 nM

## COc1cc2c(cc1-c1ccc(CC(C)C)cc1)CCC(C)(C)C2NC(=O)O[C@@H]1CN2CCC1CC2 (stereo partly drawn) [Example 236, (S)-quinuclidin-3-yl (6-(4-isobutylphenyl)-7-methoxy-2,2-dimethyl-1,2,3,4-tetrahydronaphthalen-1-yl)carbamate]
GM1 production; Homo sapiens, Jurkat, 72 h
  IC50: 3.2 nM
[1]
  IC50: 0.53 nM

## COc1cc2c(cc1-c1ccnc(OC(C)(C)C)c1)CCC(C)(C)C2NC(=O)O[C@@H]1CN2CCC1CC2 (stereo partly drawn) [Example 237, (S)-quinuclidin-3-yl (6-(2-(tert-butoxy)pyridin-4-yl)-7-methoxy-2,2-dimethyl-1,2,3,4-tetrahydronaphthalen-1-yl)carbamate]
GM1 production; Homo sapiens, Jurkat, 72 h
  IC50: 18.8 nM
[1]
  IC50: 1.84 nM

## COc1cc2c(cc1-c1ccc(OC(C)C)cc1)CCC(C)(C)C2NC(=O)O[C@@H]1CN2CCC1CC2 (stereo partly drawn) [Example 238, (S)-quinuclidin-3-yl (6-(4-isopropoxyphenyl)-7-methoxy-2,2-dimethyl-1,2,3,4-tetrahydronaphthalen-1-yl)carbamate]
GM1 production; Homo sapiens, Jurkat, 72 h
  IC50: 3.5 nM
[1]
  IC50: 0.55 nM

## (S)-quinuclidin-3-yl (2,2-dimethyl-7-(2-(p-tolyl)-1,2,3,4-tetrahydronaphthalen-1-yl)carbamate [Example 163]
GM1 production; read-out: IC50
  IC50: 55.1 nM
[1]
  IC50: 15.3 nM

## (S)-quinuclidin-3-yl (7-(3-(chlorophenyl)-1,2,3,4-tetrahydronaphthalen-1-yl)carbamate [Example 59]
GM1 production; read-out: IC50
  IC50: 153 nM
[1]
  IC50: 18.9 nM
